Source: article PMC7617869, “Molecular glues that inhibit deubiquitylase activity and inflammatory signaling” (Nature Structural & Molecular Biology, 2025)
Where “and” joins values, the source holds several entries; their conditions need not be identical. Identical values can stand only once.

What was measured:
Type in all cases: cell-based, human
[1] = tested on: ISG expression in healthy control PBMCs; assay: Healthy PBMC type I IFN signaling gene expression array, IFNα2-stimulated; details: IFNα2 20 ng/mL, 2 µM, 16 h
Description: NEM). Cell lysates were clarified by centrifugation at 15,000 g for 10 minutes at 4 °C. Clarified lysates were pre-cleared with control uncoupled agarose beads (UM400, LifeSensors) for 30 minutes on a rotator at 4 °C followed by centrifugation at 5,000 g for 2 minutes. Equal amount of pre-cleared lysates from individual samples were incubated with 20 µL Agarose-TUBE beads (pre-equilibrated with 1X Tris-buffered saline (TBS)) overnight on a rotator at 4 °C. Beads were collected by centrifugation at 5,000 g for 2 minutes at RT followed by four stringent washes with 1X TBST (TBS, 0.1% Tween-20). TUBE-pulldown proteins were eluted by boiling Agarose-TUBE beads in 2X LDS sample buffer supplemented with […] DTT for 15 minutes. Eluted proteins were resolved on NuPAGE™ 4–12% Bis–Tris gel followed by Western blotting using anti-IFNAR1 antibody (ab124764, Abcam).
(§1) PBMCs in vitro experiments
(§2) Peripheral blood mononuclear cells (PBMCs) from healthy and SSc donors were separated using density gradient method (Leucosep™, Greiner Bio-One International) from EDTA anticoagulated peripheral blood; isolated cells were washed twice by PBS. PBMCs were then incubated in RPMI1640 […]
For healthy PBMCs, cells were stimulated with 20 ng/mL of IFN (+/- compounds or DMSO). […] Concentration of CXCL10 was determined according to a 4-parameter logistic regression standard curve. […]
For Type I IFN signalling analysis, the human IFN I RT2 Profiler PCR Array (Qiagen, PAMM-016ZE) was performed on available RNA from healthy (n=3) and SSc (n=9) donors. […] Relative expression for each gene was determined, firstly by ∆CT calculated using the geometric mean of 4 housekeeping genes (ACTB, GAPDH, HPRT1, RPLP0), followed by 2^(-∆CT), and expressed as fold change to control, according to manufacturer’s guidance. IFN2α-induced ISGs in healthy donors were determined using a Student’s t-test (two-tail distribution and equal variances) on the triplicate fold change in 2^(-ΔCT) values between […]
(§3) R Foundation for Statistical Computing). The IFN2α inducible genes determined in healthy donors […]

[2] = tested on: ISG expression in SSc PBMCs; assay: SSc PBMC type I IFN signaling gene expression array, unstimulated
Description: as §1, §2
For healthy PBMCs, cells were stimulated with 20 ng/mL of IFN (+/- compounds or DMSO). For SSc PBMCs, cells were in basal conditions with no additional IFN stimulation. Cells were centrifuged at 300 g for 10 minutes. […]
RNA was extracted from cell pellets using TRIzol™ (ThermoFisher
Scientific, Waltham, MA) and processed using Quick-RNA Miniprep Kit (Zymo Research) as per the manufacturer’s instruction.
For Type I IFN signalling analysis, the human IFN I RT2 Profiler PCR Array (Qiagen, PAMM-016ZE) was performed on available RNA from healthy (n=3) and SSc (n=9) donors. RNA was converted to cDNA using RT2 First Strand Kit (Qiagen). Next, the cDNA was mixed with RT2 SYBR Green Mastermix (Qiagen, Venlo). Successful PCR performance was confirmed by assay tests for genomic DNA contamination, RNA sample quality, as well as single melt curve determination and <35 Ct for each gene, leading to validated gene expression of 67 genes. Relative expression for each gene was determined, firstly by ∆CT calculated using the geometric mean of 4 housekeeping genes (ACTB, GAPDH, HPRT1, RPLP0), followed by 2^(-∆CT), and expressed as fold change to control, according to manufacturer’s guidance. IFN2α-induced ISGs in healthy donors were determined using a Student’s t-test (two-tail distribution and equal variances) on the triplicate fold change in 2^(-ΔCT) values between […]
donors). Heatmaps were generated using the “pheatmap” function in R (v4.0.2) and RStudio (v1.3.1093) applying row scaling to standardise the expression data across samples (R core team 2020.
as §3
171-C. To account for Type I IFN signalling heterogeneity across samples, the mean 2^(-∆CT) for each […]
relative gene expression, illustrated as a fold change and visualised in log2. The Type I IFN signalling array data for the patient samples is included in Source Data Figure 6, Extended Data Fig. 9.

[3] = tested on: NF-κB pathway in THP-1 cells; assay: THP-1 NF-κB pathway SEAP reporter, lipopolysaccharide stimulation; details: LPS + compound, three replicates
[4] = unstimulated PBMCs from SSc patients, one value per patient (P1-P9)

## O=C(NC1CCNCC1)c1nn(C(=O)c2c(Cl)cccc2Cl)cc1NC(=O)c1c(Cl)cccc1Cl [JMS-175-2]
[1]
  number of the 34 IFN-upregulated ISGs suppressed compared to AP-5-145: 13
[2]; SSc PBMCs (n = 9), 2 µM, 16 h
  number of ISGs (of 34) reduced compared to AP-5-145: 22
[2]; [4]
  ADAR, Type I IFN signalling array raw data: 3.812 and 3.743 and 4.113 and 4.435 and 3.832 and 4.965 and 3.1007 and 4.473 and 4.363
  BST2, Type I IFN signalling array raw data: 2.634 and 3.889 and 3.072 and 2.87 and 3.494 and 3.795 and 4.633 and 2.6092 and 2.483
  CASP1, Type I IFN signalling array raw data: 1.213 and 2.812 and 2.398 and 2.039 and 1.156 and 2.52 and 2.747 and 2.114 and 1.958
  CD86, Type I IFN signalling array raw data: 3.228 and 5.906 and 3.901 and 5.361 and 5.149 and 4.521 and 6.493 and 4.685 and 4.196
  CXCL10, Type I IFN signalling array raw data: 8.71 and 7.706 and 4.205 and 4.635 and 4.659 and 4.1108 and 5.782 and 5.515 and 4.585
  DDX58, Type I IFN signalling array raw data: 2.743 and 2.94 and 3.022 and 3.298 and 2.839 and 3.98 and 3.519 and 2.665 and 2.269
  GBP1, Type I IFN signalling array raw data: 2.158 and 2.728 and 1.98 and 1.48 and 2.261 and 1.7592 and 1.143 and 2.383 and 0.7799
  IFI6, Type I IFN signalling array raw data: 2.425 and 3.947 and 3.076 and 2.468 and 2.755 and 3.753 and 4.379 and 1.895 and 1.403
  IFI16, Type I IFN signalling array raw data: 2.049 and 1.794 and 2.214 and 1.769 and 1.846 and 2.52 and 0.8721 and 1.744 and 1.344
  IFIH1, Type I IFN signalling array raw data: 4.067 and 4.072 and 3.5554 and 2.793 and 3.2049 and 5.377 and 3.587 and 3.865 and 3.376
  IFIT1, Type I IFN signalling array raw data: 6.813 and 5.481 and 4.387 and 3.431 and 4.758 and 6.993 and 4.645 and 3.607 and 3.511
  IFIT2, Type I IFN signalling array raw data: 3.877 and 4.276 and 4.33 and 2.588 and 4.403 and 4.745 and 2.229 and 3.19 and 2.838
  IFIT3, Type I IFN signalling array raw data: 4.821 and 4.968 and 3.571 and 2.478 and 4.365 and 4.923 and 2.496 and 2.53 and 2.343
  IFITM1, Type I IFN signalling array raw data: 1.018 and 0.9593 and 1.422 and 1.403 and 1.369 and 1.662 and 1.509 and 1.105 and 0.5587
  IFITM2, Type I IFN signalling array raw data: 4.116 and 4.7 and 5.192 and 4.824 (2×) and 4.737 and 4.678 and 5.159 and 5.095
  IFITM3, Type I IFN signalling array raw data: 2.916 and 4.165 and 3.837 and 2.08 and 3.733 and 4.352 and 4.508 and 1.719 and 2.211
  IRF1, Type I IFN signalling array raw data: 1.526 and 2.165 and 1.923 and 0.6715 and 1.654 and 1.161 and 1.159 and 2.105 and 0.7689
  IRF7, Type I IFN signalling array raw data: 5.385 and 5.096 and 5.885 and 3.925 and 5.478 and 5.126 and 4.9117 and 4.798 and 3.676
  IRF9, Type I IFN signalling array raw data: 1.63 and 2.363 and 2.229 and 1.688 and 2.545 and 2.717 and 2.001 and 1.778 and 1.074
  ISG15, Type I IFN signalling array raw data: 7.828 and 5.157 and 3.914 and 1.97 and 4.252 and 5.488 and 3.54 and 2.475 and 2.54
  ISG20, Type I IFN signalling array raw data: 2.454 and 3.36 and 3.266 and 3.42 and 2.95 and 3.395 and 3.115 and 4.07 and 2.362
  MX1, Type I IFN signalling array raw data: 4.39 and 3.317 and 4.478 and 2.343 and 4.002 and 5.299 and 4.681 and 3.297 and 2.96
  MX2, Type I IFN signalling array raw data: 4.119 and 3.616 and 4.1617 and 3.303 and 3.807 and 5.104 and 3.9466 and 3.181 and 2.652
  MYD88, Type I IFN signalling array raw data: 2.47 and 3.66 and 3.439 and 3.359 and 3.397 and 3.681 and 4.188 and 3.514 and 3.446
  NMI, Type I IFN signalling array raw data: 1.562 and 2.473 and 2.043 and 2.157 and 2.037 and 2.367 and 1.861 and 2.107 and 1.945
  OAS1, Type I IFN signalling array raw data: 3.9946 and 5.08 and 3.975 and 3.103 and 3.832 and 4.439 and 4.753 and 3.122 and 2.562
  OAS2, Type I IFN signalling array raw data: 4.012 and 3.3146 and 4.469 and 3.575 and 4.215 and 3.938 and 4.568 and 3.269 and 1.99
  PML, Type I IFN signalling array raw data: 3.464 and 4.0817 and 4.578 and 3.206 and 4.344 and 4.48 and 3.583 and 3.774 and 3.137
  SOCS1, Type I IFN signalling array raw data: 3.527 and 3.231 and 4.351 and 3.055 and 4.321 and 4.161 and 3.784 and 3.314 and 2.261
  STAT1, Type I IFN signalling array raw data: 0.658 and 1.171 and -0.3774 and -0.03547 and 0.5032 and 0.1577 and 0.4735 and 0.157 and -0.9535
  STAT2, Type I IFN signalling array raw data: 3.702 and 3.438 and 3.148 and 3.834 and 3.166 and 3.676 and 3.7416 and 3.178 and 2.42
  STAT3, Type I IFN signalling array raw data: 1.85 and 1.467 and 4.524 and 1.728 and 2.05 and 2.151 and 1.4 and 1.718 and 1.637
  TAP1, Type I IFN signalling array raw data: 1.739 and 1.988 and 2.594 and 1.8192 and 2.316 and 2.659 and 1.447 and 2.0534 and 1.014
  TNFSF10, Type I IFN signalling array raw data: 2.971 and 3.81 and 3.83 and 3.393 and 3.712 and 3.506 and 3.8599 and 3.839 and 2.706
[3]
  NF-κB SEAP reporter signal: 1.156 and 1.103 and 1.152
